In paper PMC6155608, “Substitution at the C-3 Position of Catechins Has an Influence on the Binding Affinities against Serum Albumin” (Molecules : A Journal of Synthetic Chemistry and Natural …, 2017):

Legend:
[1] = molecular target: T1, bovine serum albumin (BSA) (Bos taurus, UniProt P02769); assay: Trp fluorescence quenching of BSA (Stern–Volmer analysis); type: binding; parameters: Kq value (Stern–Volmer quenching constant) against BSA: unit not given here; conditions: 0.3 mg/mL BSA; for Kq value (Stern–Volmer quenching constant) against BSA: 20 °C, 50 mM sodium phosphate buffer pH 7.0, excitation 280 nm, means ± SE
T1 construct: BSA (F-V) and HSA (F-V) were purchased from Nacalai Tesque (Kyoto, Japan); purchased Nacalai Tesque (Kyoto, Japan)
T1 sequence (P02769 25-607): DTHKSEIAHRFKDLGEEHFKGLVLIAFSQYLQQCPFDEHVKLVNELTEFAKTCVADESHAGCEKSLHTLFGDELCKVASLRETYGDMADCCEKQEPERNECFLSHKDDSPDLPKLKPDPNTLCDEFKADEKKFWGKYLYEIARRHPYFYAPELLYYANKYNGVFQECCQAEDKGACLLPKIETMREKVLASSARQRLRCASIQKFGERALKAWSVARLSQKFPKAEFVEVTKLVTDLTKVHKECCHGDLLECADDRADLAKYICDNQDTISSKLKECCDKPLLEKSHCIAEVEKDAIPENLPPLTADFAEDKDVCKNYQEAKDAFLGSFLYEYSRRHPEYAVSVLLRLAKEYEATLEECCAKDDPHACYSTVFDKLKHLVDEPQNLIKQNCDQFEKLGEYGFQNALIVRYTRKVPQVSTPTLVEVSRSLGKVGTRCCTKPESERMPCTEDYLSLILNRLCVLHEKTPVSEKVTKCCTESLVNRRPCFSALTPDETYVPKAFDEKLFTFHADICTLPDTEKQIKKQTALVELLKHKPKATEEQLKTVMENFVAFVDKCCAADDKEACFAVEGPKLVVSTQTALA
Protocol: The fluorescence spectra of another natural catechin was also measured (data not shown).
From the data obtained by fluorescence analysis, the Stern–Volmer quenching constants (Kq values) were calculated by the Stern–Volmer relationship.
(§1) Analysis of fluorescence quenching was performed as described previously. A series of mixtures was prepared with catechins or their derivatives at various concentrations (as indicated in each figure legend) and a fixed concentration of BSA (0.3 mg/mL). After the mixture was incubated at 20 °C for 20 min, the fluorescence spectrum of BSA in the mixture was measured at 20 °C in 50 mM sodium phosphate buffer (pH 7.0) at an excitation wavelength of 280 nm and with emission in the range 290–450 nm. All measurements were performed in triplicate. Fluorescence quenching data were analyzed by the Stern–Volmer equation (Equation (1)): F0 = F (1 + Kq × Q),(1) where F0 and F are the relative fluorescence intensities of BSA without and with catechin, respectively, Kq is the Stern–Volmer quenching constant, and Q is the concentration of catechin.

[2] = molecular target: T2, human serum albumin (HSA) (Homo sapiens, UniProt P02768); assay: Trp fluorescence quenching of HSA (Stern–Volmer analysis); type: binding; parameters: unit not given here; conditions: 0.3 mg/mL HSA, excitation 280 nm; means ± SE
T2 construct: BSA (F-V) and HSA (F-V) were purchased from Nacalai Tesque (Kyoto, Japan); purchased Nacalai Tesque (Kyoto, Japan)
T2 sequence (P02768 25-609): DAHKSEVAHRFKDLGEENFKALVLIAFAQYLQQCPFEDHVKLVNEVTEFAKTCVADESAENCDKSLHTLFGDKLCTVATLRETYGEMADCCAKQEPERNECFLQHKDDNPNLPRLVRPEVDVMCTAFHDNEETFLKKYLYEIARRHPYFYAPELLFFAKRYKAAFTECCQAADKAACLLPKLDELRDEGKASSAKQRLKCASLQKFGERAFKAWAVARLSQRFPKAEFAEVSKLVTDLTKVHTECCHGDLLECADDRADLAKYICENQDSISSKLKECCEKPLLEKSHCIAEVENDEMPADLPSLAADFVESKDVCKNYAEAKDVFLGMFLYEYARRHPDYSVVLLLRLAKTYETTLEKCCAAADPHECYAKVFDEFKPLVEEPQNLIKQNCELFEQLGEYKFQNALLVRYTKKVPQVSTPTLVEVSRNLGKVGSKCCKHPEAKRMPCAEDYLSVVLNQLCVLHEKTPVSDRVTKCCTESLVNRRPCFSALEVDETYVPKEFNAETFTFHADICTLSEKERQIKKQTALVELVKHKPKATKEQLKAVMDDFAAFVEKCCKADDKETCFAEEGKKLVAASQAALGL
Protocol: Finally, we investigated the interaction between HSA and catechins and their derivatives (Figure 6). HSA has one Trp residue (Trp-214) located in drug-binding site I, and this residue behaves similarly to the Trp-213 of BSA [22]. […] Moreover, shift of the fluorescence peak wavelength against HSA was weaker than that against BSA.
as §1

For `O=C(O[C@H]1Cc2c(O)cc(O)cc2O[C@@H]1c1ccc(O)c(O)c1)c1cc(O)c(O)c(O)c1` [Cg, (−)-catechin gallate], the “Kq value (Stern–Volmer quenching constant) against BSA” value (“Kq value … against BSA” below) [1] was 0.034 ± 0.0092 and the “Kq value (Stern–Volmer quenching constant) against HSA” value (“Kq value … against HSA” below) [2] was 0.011 ± 0.0011.

For `Oc1cc(O)c2c(c1)O[C@H](c1ccc(O)c(O)c1)[C@H](O)C2` [(−)-EC, epicatechin], the “Kq value … against BSA” value [1] was 0.005 ± 0.0011 and the “Kq value … against HSA” value [2] was 0.006 ± 0.0013.

For `O=C(O[C@@H]1Cc2c(O)cc(O)cc2O[C@@H]1c1cc(O)c(O)c(O)c1)c1cc(O)c(O)c(O)c1` [EGCg, (−)-epigallocatechin gallate], the “Kq value … against BSA” value [1] was 0.225 ± 0.0192, the “effect on fluorescence intensity of Trp residues of BSA” value ([1]; excitation 280 nm) was “decreased in a dose-dependent manner” and the “shift of fluorescence peak wavelength of BSA” value ([1]; excitation 280 nm) was “red-shifted”. The “Kq value … against HSA” value [2] was 0.033 ± 0.0065.

For `Oc1cc(O)c2c(c1)O[C@H](c1cc(O)c(O)c(O)c1)[C@H](O)C2` [EGC], the “Kq value … against BSA” value [1] was 0.001 ± 0.0003 and the “Kq value … against HSA” value [2] was 0.001 ± 0.0002.

In the case of `Oc1cc(O)c2c(c1)O[C@H](c1ccc(O)c(O)c1)[C@@H](O)C2` [(+)-C, catechin], the “Kq value … against BSA” value [1] is reported as 0.005 ± 0.0003 and the “Kq value … against HSA” value [2] is reported as 0.002 ± 0.0001.

With `O=C(O[C@H]1Cc2c(O)cc(O)cc2O[C@@H]1c1cc(O)c(O)c(O)c1)c1cc(O)c(O)c(O)c1` [GCg] the “Kq value … against BSA” value [1] was 0.019 ± 0.0030 and the “Kq value … against HSA” value [2] was 0.009 ± 0.0008.

`Oc1cc(O)c2c(c1)O[C@H](c1cc(O)c(O)c(O)c1)[C@@H](O)C2` [GC] was tested, and the “Kq value … against BSA” value [1] was 0.001 ± 0.0001 and the “Kq value … against HSA” value [2] was 0.001 ± 0.0001.

`COc1cc(C(=O)O[C@@H]2Cc3c(O)cc(O)cc3O[C@@H]2c2cc(O)c(O)c(O)c2)cc(O)c1O` [Methyl-EGCg, epigallocatechin-3-O-methyl gallate] was tested, and the “Kq value … against BSA” value [1] was 0.150 ± 0.0109 and the “Kq value … against HSA” value [2] was 0.014 ± 0.0021.

In the case of `O=C(O[C@@H]1Cc2c(O)cc(O)cc2O[C@@H]1c1ccc(O)c(O)c1)c1cc(O)c(O)c(O)c1` [ECg], the “Kq value … against BSA” value [1] is reported as 0.060 ± 0.0118 and the “Kq value … against HSA” value [2] is reported as 0.007 ± 0.0011.
